Assay [1] deals with T1, TYK2 JH2 (Homo sapiens, UniProt P29597).
T1 construct: purchased DiscoverX (KINOMEscan KdELECT service); host or cells: E. coli BL21-derived (T7 phage display) or HEK-293
The experiment in a line: TYK2 JH2 binding assay (KINOMEscan KdELECT competitive binding). The note with it: TYK2 JH2 domain, KINOMEscan KdELECT (Assay A); read-out: Biochemical TYK2_DiscoverX_JH2_BND_Kd. The gist of the method:
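The assay measures displacement of DNA- or phage-tagged TYK2 pseudokinase domain from an affinity resin; compound binding lowers the amount captured, read by qPCR. Incubation lasts 1 h at room temperature.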

Assay [2] deals with JAK1/TYK2 pSTAT5 (Tyr694/699) in THP-1 cell line. Kind of assay: IFNa-stimulated JAK1/TYK2 pSTAT5 (Tyr694/699) inhibition cellular assay, AlphaLISA. Type of assay: cell-based. To be noted: Homo sapiens; THP-1 cells, IFNa-stimulated, AlphaLISA (Assay B); read-out: Cellular_THP1_IFNa-pSTATS_TYK2. The gist of the method:
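An eight-point 6-fold titration of compound (0.04–10000 nM final) is given to THP-1 cells for 1 h before 30 min of IFNa exposure. Phospho-STAT5 is read by AlphaLISA at 615 nm. IC50 values are derived by logistic regression with bottom set to 0 and Hill slope set to −1.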
(In general: Alpha assays give light when donor and acceptor beads are brought close together.)

T1 sequence (P29597 589-875 limits assumed): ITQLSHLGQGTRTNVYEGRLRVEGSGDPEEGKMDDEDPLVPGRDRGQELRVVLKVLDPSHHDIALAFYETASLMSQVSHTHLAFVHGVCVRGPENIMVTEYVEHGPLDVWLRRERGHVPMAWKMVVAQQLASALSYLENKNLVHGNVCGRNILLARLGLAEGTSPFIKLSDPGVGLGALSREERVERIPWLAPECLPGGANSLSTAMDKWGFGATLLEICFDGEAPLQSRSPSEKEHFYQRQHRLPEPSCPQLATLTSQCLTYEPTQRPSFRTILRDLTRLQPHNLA

Consider `CNc1ncc(C#Cc2ccc3oc(C)cc3c2)c2cc(NC(=O)C3CC3)ncc12` [Example 813, N-(8-(methylamino)-5-((2-methylbenzofuran-5-yl)ethynyl)-2,7-naphthyridin-3-yl)cyclopropanecarboxamide], for which, in assay [1], the Kd was at most 100 nM. Also, in assay [2], the IC50 was at most 500 nM.
For `CNc1ncc(C#Cc2ccc(CN3C4CCC3COC4)cc2)c2cc(NC(=O)C3CC3)ncc12` [Example 815, N-(5-((4-(3-oxa-8-aza-bicyclo[3.2.1]octan-8-ylmethyl)phenyl)ethynyl)-8-(methylamino)-2,7-naphthyridin-3-yl)cyclopropanecarboxamide], in assay [1], the Kd was at most 100 nM. In assay [2], the IC50 is at most 500 nM.
Turning to `CNc1ncc(C#Cc2ccc(CN3CC(OC)C3)cc2)c2cc(NC(=O)C3CC3)ncc12` [Example 816, N-(5-((4-((3-methoxyazetidin-1-yl)methyl)phenyl)ethynyl)-8-(methylamino)-2,7-naphthyridin-3-yl)cyclopropanecarboxamide], the Kd in assay [1] is at most 100 nM. Also, in assay [2], the IC50 was at most 500 nM.
The corresponding values for `[2H]C([2H])([2H])n1nnc2ccc(C#Cc3cnc(NC)c4cnc(NC(=O)C5CC5)cc34)cc21` [Example 817, N-(5-((1-(methyl-d3)-1H-benzo[d][1,2,3]triazol-6-yl)ethynyl)-8-(methylamino)-2,7-naphthyridin-3-yl)cyclopropanecarboxamide] are at most 100 nM and at most 500 nM.
In the same order, the values of `[2H]C([2H])([2H])Nc1ncc(C#Cc2ccc3nc(C(F)F)n(C)c3c2)c2cc(NC(=O)C3CC3)ncc12` [Example 818, N-(5-((2-(difluoromethyl)-1-methyl-1H-benzo[d]imidazol-6-yl)ethynyl)-8-((methyl-d3)amino)-2,7-naphthyridin-3-yl)cyclopropanecarboxamide] are at most 100 nM and at most 500 nM.
The corresponding values for `[2H]C([2H])([2H])Nc1ncc(C#Cc2ccc3nc(C(F)F)n(C)c3c2)c2cc(NC(=O)[C@H]3C[C@H]3C)ncc12` [Example 819, (1S,2R)—N-(5-((2-(difluoromethyl)-1-methyl-1H-benzo[d]imidazol-6-yl)ethynyl)-8-((methyl-d3)amino)-2,7-naphthyridin-3-yl)-2-methylcyclopropane-1-carboxamide] are at most 100 nM and at most 500 nM.
As to `CNc1ncc(C#Cc2ccc(CN3CCOCC3)cc2)c2cc(NC(=O)C3CC3)ncc12` [Example 820, N-(8-(methylamino)-5-((4-(morpholinomethyl)phenyl)ethynyl)-2,7-naphthyridin-3-yl)cyclopropanecarboxamide], in assay [1], the Kd is at most 100 nM. For the same compound, the IC50 in assay [2] is at most 500 nM.
As to `CNc1ncc(C#Cc2ccc(CN3CCOCC3)cc2)c2cc(NC(=O)[C@H]3C[C@H]3C)ncc12` [Example 821, (1S,2R)-2-methyl-N-(8-(methylamino)-5-((4-(morpholinomethyl)phenyl)ethynyl)-2,7-naphthyridin-3-yl)cyclopropane-1-carboxamide], the Kd in assay [1] is at most 100 nM. Besides, the IC50 in assay [2] is at most 500 nM.
The corresponding values for `CNc1ncc(Br)c2c1cnc1[nH]ccc12` [Example 824, 9-bromo-N-methyl-3H-pyrrolo[2,3-c][2,7]naphthyridin-6-amine] are 100 to 1000 nM and above 500 nM.
The corresponding values for `CNc1ncc(-c2nc3ccccc3o2)c2c1cnc1[nH]ccc12` [Example 825, 9-(benzo[d]oxazol-2-yl)-N-methyl-3H-pyrrolo[2,3-c][2,7]naphthyridin-6-amine] are at most 100 nM and above 500 nM.
In the same order, the values of `CNc1ncc(CCc2cc(OC)cc(-c3ncnn3C)c2)c2cc(NC(=O)C3CC3)ncc12` [Example 826, N-(5-(3-methoxy-5-(1-methyl-1H-1,2,4-triazol-5-yl)phenethyl)-8-(methylamino)-2,7-naphthyridin-3-yl)cyclopropanecarboxamide] are at most 100 nM and above 500 nM.
`CNc1ncc(-c2nc(Cc3ncn(C)n3)co2)c2cc(NC(=O)C3CC3)ncc12` [Example 827, N-(5-(4-((1-methyl-1H-1,2,4-triazol-3-yl)methyl)oxazol-2-yl)-8-(methylamino)-2,7-naphthyridin-3-yl)cyclopropanecarboxamide]: in assay [1], the Kd is at most 100 nM. The IC50 in assay [2] was above 500 nM.
In the same order, the values of `CNc1ncc(-c2nc(Cc3ncnn3C)co2)c2cc(NC(=O)C3CC3)ncc12` [Example 828, N-(5-(4-((1-methyl-1H-1,2,4-triazol-5-yl)methyl)oxazol-2-yl)-8-(methylamino)-2,7-naphthyridin-3-yl)cyclopropanecarboxamide] are at most 100 nM and above 500 nM.
The corresponding values for `CNc1ncc(-c2nc(-c3nc[nH]n3)co2)c2cc(NC(=O)C3CC3)ncc12` [Example 829, N-(5-(4-(1H-1,2,4-triazol-3-yl)oxazol-2-yl)-8-(methylamino)-2,7-naphthyridin-3-yl)cyclopropanecarboxamide] are at most 100 nM and at most 500 nM.
In the same order, the values of `CNc1ncc(-c2nc(-c3ncn(C)n3)co2)c2cc(NC(=O)C3CC3)ncc12` [Example 830, N-(5-(4-(1-methyl-1H-1,2,4-triazol-3-yl)oxazol-2-yl)-8-(methylamino)-2,7-naphthyridin-3-yl)cyclopropanecarboxamide] are at most 100 nM and at most 500 nM.
`CNc1ncc(-c2nc(-c3ncnn3C)co2)c2cc(NC(=O)C3CC3)ncc12` [Example 831, N-(5-(4-(1-methyl-1H-1,2,4-triazol-5-yl)oxazol-2-yl)-8-(methylamino)-2,7-naphthyridin-3-yl)cyclopropanecarboxamide]: the Kd in assay [1] is at most 100 nM. Further, the IC50 in assay [2] was above 500 nM.
The corresponding values for `CNc1ncc(C2=CCCC(c3nc[nH]n3)C2)c2cc(NC(=O)C3CC3)ncc12` (stereo not shown) [Example 832, N-(5-(5-(1H-1,2,4-triazol-3-yl)cyclohex-1-en-1-yl)-8-(methylamino)-2,7-naphthyridin-3-yl)cyclopropanecarboxamide] are at most 100 nM and above 500 nM.
In the same order, the values of `CNc1ncc(C2=CCC(c3nc[nH]n3)C2)c2cc(NC(=O)C3CC3)ncc12` (stereo not shown) [Example 833, N-(5-(4-(1H-1,2,4-triazol-3-yl)cyclopent-1-en-1-yl)-8-(methylamino)-2,7-naphthyridin-3-yl)cyclopropanecarboxamide] are at most 100 nM and above 500 nM.
In the same order, the values of `CNc1ncc(C2=CCC(c3ncn(C)n3)C2)c2cc(NC(=O)C3CC3)ncc12` (stereo not shown) [Example 834, N-(5-(4-(1-methyl-1H-1,2,4-triazol-3-yl)cyclopent-1-en-1-yl)-8-(methylamino)-2,7-naphthyridin-3-yl)cyclopropanecarboxamide] are at most 100 nM and above 500 nM.
Turning to `CNc1ncc(C2=CCC(c3ncnn3C)C2)c2cc(NC(=O)C3CC3)ncc12` (stereo not shown) [Example 835, N-(5-(4-(1-methyl-1H-1,2,4-triazol-5-yl)cyclopent-1-en-1-yl)-8-(methylamino)-2,7-naphthyridin-3-yl)cyclopropanecarboxamide], the Kd in assay [1] was at most 100 nM. For the same compound, the IC50 in assay [2] was above 500 nM.
Turning to `CNc1ncc(-c2ccn(CCc3ncn(C)n3)n2)c2cc(NC(=O)C3CC3)ncc12` [Example 835A, N-(5-(1-(2-(1-methyl-1H-1,2,4-triazol-3-yl)ethyl)-1H-pyrazol-3-yl)-8-(methylamino)-2,7-naphthyridin-3-yl)cyclopropanecarboxamide], the Kd in assay [1] was at most 100 nM. In addition, the IC50 in assay [2] is above 500 nM.
In the same order, the values of `CNc1ncc(-c2ccn(CCc3ncnn3C)n2)c2cc(NC(=O)C3CC3)ncc12` [Example 836, N-(5-(1-(2-(1-methyl-1H-1,2,4-triazol-5-yl)ethyl)-1H-pyrazol-3-yl)-8-(methylamino)-2,7-naphthyridin-3-yl)cyclopropanecarboxamide] are at most 100 nM and above 500 nM.
The corresponding values for `CNc1ncc(CCc2ccc(S(C)(=O)=O)cc2)c2cc(NC(=O)C3CC3)ncc12` [Example 839, N-(8-(methylamino)-5-(4-(methylsulfonyl)phenethyl)-2,7-naphthyridin-3-yl)cyclopropanecarboxamide] are at most 100 nM and at most 500 nM.
The corresponding values for `CNc1ncc(-c2cn3cccnc3n2)c2cc(NC(=O)C3CC3)ncc12` [Example 841, N-(5-(imidazo[1,2-a]pyrimidin-2-yl)-8-(methylamino)-2,7-naphthyridin-3-yl)cyclopropanecarboxamide] are at most 100 nM and above 500 nM.
Consider `CNc1ncc(-c2nc3n(n2)CCCC3)c2cc(NC(=O)C3CC3)ncc12` [Example 842, N-(8-(methylamino)-5-(5,6,7,8-tetrahydro-[1,2,4]triazolo[1,5-a]pyridin-2-yl)-2,7-naphthyridin-3-yl)cyclopropanecarboxamide], for which, in assay [1], the Kd was at most 100 nM. Further, the IC50 in assay [2] was above 500 nM.
Consider `CNc1ncc(-c2nc3c(o2)CCCC3)c2cc(NC(=O)C3CC3)ncc12` [Example 843, N-(8-(methylamino)-5-(4,5,6,7-tetrahydrobenzo[d]oxazol-2-yl)-2,7-naphthyridin-3-yl)cyclopropanecarboxamide], for which the Kd in assay [1] was at most 100 nM. For the same compound, in assay [2], the IC50 is at most 500 nM.

For the origin of these results see US20240025906A1 (NEURON23, INC., priority 2022, published 2024).
